Assays:
Format in all cases: cell-based
[1] = tested on: cancer cell lines; assay: In vitro colorimetric cell death assay (MTT), overall statement
Method: It's an in vitro colorimetric assay for assessing cell viability where the cells are grown in Two-dimensional surface.
An exemplary procedure for the assay follows. Cancer cells and normal cells were plated in a 96 well plate as per predetermined plating efficiency. The plate was incubated for 24 hours in a 5% CO2 atmosphere at 37 degrees Celsius, a range of concentrations of the compounds I-1, I-2 and I-3 as well as cisplatin (known chemotherapeutic agents) were added to the separate wells, the plate was incubated further for 48 hours in a 5% CO2 atmosphere, the plate was centrifuged twice at 3000 rpm for 3 minutes, the supernatant fluid was discarded, 100 uL of 0.5 mg/mL MTT solution was added and the plate was incubated for 4 hours in a 5% CO2 atmosphere at 37 degrees Celsius. The plate was then centrifuged twice at 3000 rpm for 3 minutes, supernatant, was aspirated very carefully, 200 uL DMSO was added to each well to solubilize MTT crystals and mixed well by shaking the plate, the plate was incubated for 10 minutes in a 5% CO2 atmosphere at 37 degrees Celsius, the plate placed on the shaker of an ELISA plate reader and the absorbance at 570 nm was measured, then the percentage of viable cells remaining was calculated by first subtracting the background absorbance then comparing to the absorbance of a non-drug-treated cell sample, and the results were plotted on a graph to determine the IC50 for the compounds and cisplatin.

[2] = tested on: DU145; assay: In vitro soft agar colony forming growth assay; details: Homo sapiens, DU-145, 168 h, one week
Method: (§1) The Soft Agar Assay for Colony Formation is considered the most stringent assay for detecting malignant transformation of cells. In this assay the cells are cultured in medium with low percentage of agar.
(§2) An exemplary procedure for the assay follows.

[3] = tested on: LNCaP; assay: In vitro soft agar colony forming growth assay; details: Homo sapiens, 168 h, one week
Method: as §1, §2

[4] = tested on: MDAMB231; assay: In vitro soft agar colony forming growth assay; details: Homo sapiens, MDA-MB-231, 168 h; MDAMB231, soft agar, one week; read-out: IC 50
Method: as §1, §2

[5] = tested on: T47D; assay: In vitro soft agar colony forming growth assay; details: Homo sapiens, 168 h, one week
Method: as §1, §2

[6] = tested on: breast cancer cells MDA MB 231; assay: In vitro 3D primary sphere forming stem cell assay
Method: (§3) This assay measures the ability of cancer stem cells to form spheres in a serum free media where the spheres are in a suspended form. Through this assay we evaluated the potency of the compounds of the invention to kill cancer stem cells in comparison with the known chemotherapeutic agent Cisplatin.
(§4) An exemplary procedure for the assay follows. Cells were grown in three dimensions on a plastic substrate, harvested in suspension in serum-free media, then the cells in the sample were trypsinized and a single cell suspension was formed by passing through a cell strainer. The cells were diluted according to the predetermined plating efficiency for the cell line being studied by suspending the cells in stem cell culture medium. 100 uL of this suspension was added into each well of a 96 well suspension plate, and the plate was incubated at 37 degrees Celsius in 5% CO2 atmosphere for 24 hours, then 2 uL of appropriate concentrations of the compounds of the invention and cisplatin were added into each respective well along with 100 uL of stem cell culture medium, and the plates were incubated at 37 degrees Celsius under 5% CO2 atmosphere for 72 hours. 2.5 uL of the compounds of the invention and cisplatin were added to each respective well along with 50 uL of stem cell culture medium and then the plates were incubated at 37 degrees Celsius under 5% CO2 atmosphere for 72 hours. 3 uL of appropriate concentrations of the compounds of the invention and cisplatin were added to each respective well along with 50 uL of stem cell culture medium and then the plates were incubated at 37 degrees Celsius under 5% CO2 atmosphere for 72 hours, then the spheres formed were observed under a microscope then counted and scored by size.
(§5) Results of the in vitro 3D sphere forming stem cell assay are set forth in a tabular manner. The number in each box is the total number of spheres formed in the presence of either cisplatin or compound I-2 or compound I-3 at each drug concentration. GC refers to a growth control performed in the absence of drug or solvent (DMSO). GCD refers to a growth control performed in the absence of drug, but in the presence of DMSO.

[7] = tested on: breast cancer cells T47D; assay: In vitro 3D primary sphere forming stem cell assay
Method: as §3, §4, §5

[8] = tested on: prostate cancer cells DU145; assay: In vitro 3D primary sphere forming stem cell assay
Method: as §3, §4, §5

[9] = tested on: prostate cancer cells LNCaP; assay: In vitro 3D primary sphere forming stem cell assay
Method: as §3, §4, §5

[10] = tested on: prostate cancer cells PC3; assay: In vitro 3D primary sphere forming stem cell assay
Method: as §3, §4, §5

## COc1cc2c(OC3OCC(OC)C(OC)C3O)c3c(c(-c4ccc5c(c4)OCO5)c2cc1OC)C(=O)OC3 (centres unmarked) [I-2]
[1]
  anticancer activity in cancer cell lines as compared to cisplatin: high anticancer activity
[2]
  IC50: 3.16 µM
[3]
  IC50: 0.7 µM
[4]
  IC50: 3.63 µM
[5]
  IC50: 2.39 µM
[6]; MDA MB 231
  numbers of primary spheres formed, compared with cisplatin: significantly less
[6]; final conc. 0.125 μM
  # of 3D Primary Spheres Formed of Cells MDA MB231 (±SD): 60(±9)
[6]; final conc. 1.25 μM
  # of 3D Primary Spheres Formed of Cells MDA MB231 (±SD): 32(±5)
[6]; final conc. 12.5 μM
  # of 3D Primary Spheres Formed of Cells MDA MB231 (±SD): 14(±2)
[6]; final conc. 125 μM
  # of 3D Primary Spheres Formed of Cells MDA MB231 (±SD): 0(±0)
[6]; final conc. 1250 μM
  # of 3D Primary Spheres Formed of Cells MDA MB231 (±SD): 0(±0)
[7]; T47D
  numbers of primary spheres formed, compared with cisplatin: significantly less
[7]; final conc. 0.125 μM
  # of 3D Primary Spheres Formed of Cells T47D (±SD): 84(±8)
[7]; final conc. 1.25 μM
  # of 3D Primary Spheres Formed of Cells T47D (±SD): 34(±5)
[7]; final conc. 12.5 μM
  # of 3D Primary Spheres Formed of Cells T47D (±SD): 28(±7)
[7]; final conc. 125 μM
  # of 3D Primary Spheres Formed of Cells T47D (±SD): 14(±4)
[7]; final conc. 1250 μM
  # of 3D Primary Spheres Formed of Cells T47D (±SD): 0(±0)
[8]; DU145
  numbers of primary spheres formed, compared with cisplatin: significantly less
[8]; final conc. 0.125 μM
  # of 3D Primary Spheres Formed of Cells DU145 (±SD): 53(±5)
[8]; final conc. 1.25 μM
  # of 3D Primary Spheres Formed of Cells DU145 (±SD): 41(±4)
[8]; final conc. 12.5 μM
  # of 3D Primary Spheres Formed of Cells DU145 (±SD): 18(±7)
[8]; final conc. 125 μM
  # of 3D Primary Spheres Formed of Cells DU145 (±SD): 7(±1)
[8]; final conc. 1250 μM
  # of 3D Primary Spheres Formed of Cells DU145 (±SD): 0(±0)
[9]; LNCaP
  numbers of primary spheres formed, compared with cisplatin: significantly less
[9]; final conc. 0.125 μM
  # of 3D Primary Spheres Formed of Cells LNCaP (±SD): 98(±17)
[9]; final conc. 1.25 μM
  # of 3D Primary Spheres Formed of Cells LNCaP (±SD): 49(±6)
[9]; final conc. 12.5 μM
  # of 3D Primary Spheres Formed of Cells LNCaP (±SD): 6(±2)
[9]; final conc. 125 μM
  # of 3D Primary Spheres Formed of Cells LNCaP (±SD): 0(±0)
[9]; final conc. 1250 μM
  # of 3D Primary Spheres Formed of Cells LNCaP (±SD): 0(±0)
[10]; PC3
  numbers of primary spheres formed, compared with cisplatin: significantly less
[10]; final conc. 0.125 μM
  # of 3D Primary Spheres Formed of Cells PC3 (±SD): 81(±9)
[10]; final conc. 1.25 μM
  # of 3D Primary Spheres Formed of Cells PC3 (±SD): 69(±3)
[10]; final conc. 12.5 μM
  # of 3D Primary Spheres Formed of Cells PC3 (±SD): 63(±8)
[10]; final conc. 125 μM
  # of 3D Primary Spheres Formed of Cells PC3 (±SD): 31(±6)
[10]; final conc. 1250 μM
  # of 3D Primary Spheres Formed of Cells PC3 (±SD): 0(±0)
